pIC50: −log10 of the molar value.
Experiments:
[1] = system: IFN-γ production; assay: IFN-γ production in the mixed leukocyte response (MLR); type: cell-based; settings: 120 h; allogeneic PBMC from 2 donors, 5 days, ELISA; read-out: INF-γ IC50
Procedure: Immature dendritic cells (DC) were prepared as described in Romani, N. et al. (Romani, N. et al. (1996) J. Immunol. Meth. 196:137). IFN-γ production by allogeneic T cell activation in the mixed leukocyte response (MLR) was determined as described in Penna, G., et al., J Immunol., 164: 2405-2411 (2000).
Briefly, peripheral blood mononuclear cells (PBMC) were separated from buffy coats by Ficoll gradient and the same number (3×10^5) of allogeneic PBMC from 2 different donors were co-cultured in 96-well flat-bottom plates. The vitamin D3 compounds were added to each of the cultures.

[2] = system: RT112; assay: Proliferation assay using bladder cancer cell lines, RT112; type: cell-based, human; settings: Homo sapiens, RT-112, 72 h, 72 h culture, CyQuant proliferation assay
Procedure: (§1) Bladder cancer cell lines (T24, RT112, HT1376 and RT4 are human bladder cancer cell lines; NHEK are normal human keratinocytes) were obtained from the European Collection of Cell Cultures (Salisbury, UK). Cells were plated at 3×10^3 per well, in flat bottomed 96-well plates in 100 μl of DMEM medium containing: 5% Fetal Clone I, 50 μg/l gentamicin, 1 mM sodium pyruvate and 1% non-essential amino acids. After culturing for 24 h at 37° C. in 5% CO2, to allow cells to adhere to the plates, VDR ligands (compounds (2), (4), (5) and other vitamin D3 analogs as shown in Table 4) were added at concentrations ranging from 100 μM to 0.3 μM in 100 μl of above-mentioned complete medium. After a further 72 h of culture, cell proliferation was measured using a fluorescence-based proliferation assay kit. (CyQuant Cell Proliferation Assay Kit, Molecular Probes, Eugene, Oreg., USA). The IC50 was calculated from the regression curve of the titration data.

[3] = system: RT4; assay: Proliferation assay using bladder cancer cell lines, RT4; type: cell-based, human; settings: Homo sapiens, RT-4, 72 h, 72 h culture, CyQuant proliferation assay
Procedure: as §1

[4] = system: rats with CYP-induced cystitis; assay: Cyclophosphamide (CYP) induced chronic IC in rats, cystometry; type: in vivo, Wistar rats
Source text: The rat model of chemical cystitis induced by intraperitoneal injection of CYP has been well accepted. CYP is used in clinical practice in the treatment of a number of malignant tumors. One of its metabolites, acrolein, is excreted in urine in large concentrations causing hemorrhagic cystitis associated with symptoms of urinary frequency, urgency and pelvic pain. The inflammatory process is characterized by changes in gross histology of bladder, increase in number and distribution of inflammatory cell infiltrates (mast cells, macrophage, PMNs), cyclo-oxygenase-2 expression and prostaglandin production, growth factor and cytokine production. […]
This model was used to test the effects of 1,25-dihydroxyvitamin D3 analogue in rats with CYP-induced cystitis. The effects of the treatment on the cystometric parameters in a conscious freely moving rat with CYP-induced cystitis were monitored. The following cystometric parameters were recorded in each animal: bladder capacity, filling pressure (pressure at the beginning of the bladder filling), threshold pressure (bladder pressure immediately prior to micturition), micturition pressure (the maximal bladder pressure during micturition), presence or absence of non-voiding bladder contractions (increases in bladder pressure of at least 10 cm H20 without release of urine), and amplitude of non-voiding bladder contraction. […]

In the case of CC(=O)OC1C/C(=C/C=C2\CCC[C@]3(C)C(C(C)C/C=C\C(O)(C(F)(F)F)C(F)(F)F)=CCC23)C[C@@H](OC(C)=O)C1 (stereo partly shown) [Compound (2), 1,3-Di-O-acetyl-1,25-dihydroxy-16,23Z-diene-26,27-hexafluoro-19-nor-cholecalciferol], the pIC50 [1] was 9.14, the pIC50 [2] was 6.00 and the pIC50 [3] was 4.70. For the same compound, the “ability to treat bladder dysfunction” value [4] was “has the ability to treat bladder dysfunction”.

From patent US20080064668A1, “1,3-Diacylated, 26,27-Alkyl/Haloakyl Vitamin D3 Compounds and Methods of Use Thereof” (BioXell S.p.A., priority 2003, published 2008)
